According to US20080145313A1, “Compositions and Methods for the Treatment and Prevention of Neoplastic Disorders” (Genesis Research & Development Corporation Limited, priority 2006, published 2008):

Columns and labels:
A549 cells = assay: Growth inhibition of siRNA-transfected A549 cells, SYBR Green I DNA content; format: cell-based, human; details: 10 nM siRNA, DNA content 96 hours after transfection; for Growth Inhibition in A549 cells by 10 nM siRNA: transporter gene targets
Method in brief: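 Growth read-out: cellular DNA quantified with SYBR Green I (485/535 nm) 96 h after transfection, cells frozen, thawed and lysed in PBS/1% Triton X-100, pH 7. Cells (A549, 5×10^3 cells/cm^2) received 10 nM siRNA by RNAiMAX; non-specific siRNA served as control; triplicate wells averaged.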

[1] = tested on: target transcript mRNA in A549 cells; assay: Level of mRNA of target transcript in A549 cells by quantitative RT-PCR (Tables 12 and 13); format: cell-based, human; details: 24 h post-transfection
Method in brief: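 Target mRNA was measured by SYBR Green quantitative RT-PCR using random-primed cDNA, normalised to HPRT and Lamin. Samples came from A549 cells 24 h post-transfection with 0.1, 1.0 or 10 nM siRNA.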

Row | Substance | Growth Inhibition in A549 cells by 10 nM siRNA (A549 cells) | mRNA knockdown of transporter gene target transcript, 0.1 nM ([1]; 0.1 nM siRNA) | mRNA knockdown of transporter gene target transcript, 1 nM ([1]; 1 nM siRNA) | Growth Inhibition in A549 cells (A549 cells) | mRNA knockdown of energy and metabolism gene target transcript, 0.1 nM ([1]; 0.1 nM siRNA) | mRNA knockdown of energy and metabolism gene target transcript, 1 nM ([1]; 1 nM siRNA)
1 | SEQ ID NO: 4955: siRNA targeting ATP6V1C1 (chain 1 TTGATTGGATATTTGGCCATGTCCC; chain 2 UUGAUUGGAUAUUUGGCCAUGUCCC; chemistry not given here; one strand in two spellings) | − (no growth inhibition) | + (50-70% mRNA knockdown) | ++ (70-90% mRNA knockdown) | – | – | –
2 | SEQ ID NO: 4959: siRNA targeting ATP6V1E1 (chain 1 TGGTCAATTTGGACATCAACATCGT; chain 2 UGGUCAAUUUGGACAUCAACAUCGU; chemistry not given here; one strand in two spellings) | − (no growth inhibition) | − (<50% mRNA knockdown) | ++ (70-90% mRNA knockdown) | – | – | –
3 | SEQ ID NO: 4957: siRNA targeting ATP6V1C1 (chain 1 TAGACCTTGGAACTACCATTTCGGC; chain 2 UAGACCUUGGAACUACCAUUUCGGC; chemistry not given here; one strand in two spellings) | − (no growth inhibition) | ++ (70-90% mRNA knockdown) | ++ (70-90% mRNA knockdown) | – | – | –
4 | SEQ ID NO: 4927: siRNA targeting SLC25A1 (CIC) (chain 1 TGCCTTTGTAGAATGCCTTGAGCCC; chain 2 UGCCUUUGUAGAAUGCCUUGAGCCC; chemistry not given here; one strand in two spellings) | − (no growth inhibition) | ++ (70-90% mRNA knockdown) | ++ (70-90% mRNA knockdown) | – | – | –
5 | SEQ ID NO: 4946: siRNA targeting ATP2B4 (PMCA4) (chain 1 AATATCACCAACCACAATCTCAGCC; chain 2 AAUAUCACCAACCACAAUCUCAGCC; chemistry not given here; one strand in two spellings) | − (no growth inhibition) | ++ (70-90% mRNA knockdown) | ++ (70-90% mRNA knockdown) | – | – | –
6 | SEQ ID NO: 5306: Stealth siRNA targeting RRM2 (chain 1 TGTCCAGGTGTTTGAACATCAGGC; chain 2 UGUACCAGGUGUUUGAACAUCAGGC; Stealth siRNA, chemical pattern not given here) | – | – | – | ++ (inhibits by at least 75%) | ++ (70-90% mRNA knockdown) | + (50-70% mRNA knockdown)
7 | SEQ ID NO: 4960: siRNA targeting ATP6V1E1 (chain 1 TGGCATTTGCACCAAACAAGGCTCC; chain 2 UGGCAUUUGCACCAAACAAGGCUCC; chemistry not given here; one strand in two spellings) | − (no growth inhibition) | − (<50% mRNA knockdown) | + (50-70% mRNA knockdown) | – | – | –
8 | SEQ ID NO: 4961: siRNA targeting ATP6V1F (chain 1 ATGTCATCCCGGTTTAGAAATTGCC; chain 2 AUGUCAUCCCGGUUUAGAAAUUGCC; chemistry not given here; one strand in two spellings) | − (no growth inhibition) | ++ (70-90% mRNA knockdown) | ++ (70-90% mRNA knockdown) | – | – | –
9 | SEQ ID NO: 4935: siRNA targeting SLC29A2 (ENT2) (chain 1 TAACACACGATGGACATGAGGATGC; chain 2 UAACACACGAUGGACAUGAGGAUGC; chemistry not given here; one strand in two spellings) | − (no growth inhibition) | + (50-70% mRNA knockdown) | + (50-70% mRNA knockdown) | – | – | –
10 | SEQ ID NO: 4977: siRNA targeting ABCB1 (MDR1) (chain 1 AAACGATGAGCTATCACAATGGTGG; chain 2 AAACGAUGAGCUAUCACAAUGGUGG; chemistry not given here; one strand in two spellings) | − (no growth inhibition) | − (<50% mRNA knockdown) | − (<50% mRNA knockdown) | – | – | –
11 | SEQ ID NO: 4896: siRNA targeting SLC2A5 (GLUT5) (chain 1 AAGTCTTCCATGAATTCACCGGTCC; chain 2 AAGUCUUCCAUGAAUUCACCGGUCC; Antisense strand given in DNA and RNA notation, chemistry not given here; one strand in two spellings) | − (no growth inhibition) | − (<50% mRNA knockdown) | − (<50% mRNA knockdown) | – | – | –
12 | SEQ ID NO: 4925: siRNA targeting SLC25A1 (CIC) (chain 1 TAATCACATCCAGAGGAGTGTTTCC; chain 2 UAAUCACAUCCAGAGGAGUGUUUCC; chemistry not given here; one strand in two spellings) | − (no growth inhibition) | ++ (70-90% mRNA knockdown) | ++ (70-90% mRNA knockdown) | – | – | –
13 | SEQ ID NO: 4903: siRNA targeting SLC7A5 (LAT1) (chain 1 ACGAAATTCAAGTAATTCCATCCTC; chain 2 ACGAAAUUCAAGUAAUUCCAUCCUC; Antisense strand given in DNA and RNA notation, chemistry not given here; one strand in two spellings) | − (no growth inhibition) | ++ (70-90% mRNA knockdown) | +++ (>90% mRNA knockdown) | – | – | –
14 | SEQ ID NO: 4908: siRNA targeting SLC3A2 (4F2hc) (chain 1 AAGTTGAGCCGGCAAGAAGGAAGTC; chain 2 AAGUUGAGCCGGCAAGAAGGAAGUC; Antisense strand given in DNA and RNA notation, chemistry not given here; one strand in two spellings) | ++ (inhibits by at least 75%) | − (<50% mRNA knockdown) | + (50-70% mRNA knockdown) | – | – | –
15 | SEQ ID NO: 4920: siRNA targeting SLC9A1 (NHE1) (chain 1 TCAGGTAGTTGTTGATCTTCTGCTC; chain 2 UCAGGUAGUUGUUGAUCUUCUGCUC; chemistry not given here; one strand in two spellings) | − (no growth inhibition) | ++ (70-90% mRNA knockdown) | ++ (70-90% mRNA knockdown) | – | – | –
16 | SEQ ID NO: 4890: siRNA targeting SLC1A5 (ASCT2) (chain 1 TTTACGAAGTCCAAGGACTGCTGGC; chain 2 UUUACGAAGUCCAAGGACUGCUGGC; Antisense strand given in DNA and RNA notation, chemistry not given here; one strand in two spellings) | − (no growth inhibition) | ++ (70-90% mRNA knockdown) | ++ (70-90% mRNA knockdown) | – | – | –
17 | SEQ ID NO: 4909: siRNA targeting SLC3A2 (4F2hc) (chain 1 AAGAGCATCAGCTGGTAGAGTCGGA; chain 2 AAGAGCAUCAGCUGGUAGAGUCGGA; Antisense strand given in DNA and RNA notation, chemistry not given here; one strand in two spellings) | − (no growth inhibition) | + (50-70% mRNA knockdown) | ++ (70-90% mRNA knockdown) | – | – | –
18 | SEQ ID NO: 4939: siRNA targeting ATP2B1 (PMCA1) (chain 1 ATTAACAGTAAGTTGGAACTGAAGG; chain 2 AUUAACAGUAAGUUGGAACUGAAGG; chemistry not given here; one strand in two spellings) | − (no growth inhibition) | + (50-70% mRNA knockdown) | ++ (70-90% mRNA knockdown) | – | – | –
19 | SEQ ID NO: 4895: siRNA targeting SLC2A5 (GLUT5) (chain 1 ATGTATGGCATCCAGGACACTGTGT; chain 2 AUGUAUGGCAUCCAGGACACUGUGU; Antisense strand given in DNA and RNA notation, chemistry not given here; one strand in two spellings) | − (no growth inhibition) | ++ (70-90% mRNA knockdown) | ++ (70-90% mRNA knockdown) | – | – | –
20 | SEQ ID NO: 4930: siRNA targeting SLC25A10 (DIC) (chain 1 TCCTGACGTTGACCAAGTCTGCGGG; chain 2 UCCUGACGUUGACCAAGUCUGCGGG; chemistry not given here; one strand in two spellings) | − (no growth inhibition) | ++ (70-90% mRNA knockdown) | ++ (70-90% mRNA knockdown) | – | – | –
